This is an account of results in patent US20050124674A1, “Synergistic biocide composition” (priority 1998, published 2005).

What all share (assay): MIC / synergy test of MIT and IPBC mixtures in Sabouraud maltose broth
Format in all cases: cell-based

One assay concerns Candida valida. The settings on record: 96 hours; for MIC value: biocide used alone; for Synergy index Qa/QA + Qb/QB: method of Kull et al. The protocol:
(§1) The calculation of the synergy index is performed according to the method by F. C. Kull et al., Applied Microbiology, vol. 9 (1961), p. 538. The synergy index is calculated here using the following formula: Synergy index SI=Qa/QA+Qb/QB.
(§2) When this formula is used for the biocide system tested here, the variables in the formula have the following meaning: • […]=Concentration of MIT in biocide mixture of MIT and IPBC • QA=Concentration of MIT as the only biocide • Qb=Concentration of IPBC in biocide mixture of MIT and IPBC • QB=Concentration of IPBC as the only biocide
(§3) When the synergy index has a value of less than 1, that means that a synergy of the two biocides exists.
(§4) The test arrangements again included a Sabouraud maltose broth as culture medium. The cell density was 10^6 cells/ml. The incubation time was 96 hours at 25° C. Every sample was incubated at 120 r.p.m. on an incubation shaker.

The next assay has as its system Aspergillus niger. The settings on record: 96 hours; for MIC value: biocide used alone; for Synergy index Qa/QA + Qb/QB: method of Kull et al. The protocol:
as §1, §2, §3, §4

Another assay has as its system Saccharomyces cerevisiae. The conditions noted are these: for MIC at IPBC concentration Qb: IPBC part of the MIC pair; for MIC value: biocide used alone; for Synergy index Qa/QA + Qb/QB: method of Kull et al.; for MIC at MIT concentration Qa: MIT part of the MIC pair. Here is the method: For that purpose, aqueous mixtures with different concentrations of 2-methylisothiazolin-3-one (MIT) and 3-iodo-2-propynyl-N-butylcarbamate (IPBC) were produced and the effects of those mixtures on Saccharomyces cerevisiae were tested.
In addition to the biocide components and water, the aqueous mixtures also contained a nutrient medium, specifically a Sabouraud maltose broth (trade product “Merck No. 10393”). The cell density of Saccharomyces cerevisiae was 10^6 cells/ml. The incubation time was 72 hours at 25° C. Each sample was incubated at 120 r.p.m. on an incubation shaker.
as §1, §2, §3
Example 1 was repeated with the change that the incubation time was 96 hours instead of 72 hours.

Another assay has as its system Penicillium funiculosum. The settings on record: for MIC at IPBC concentration Qb: IPBC part of the MIC pair; for MIC value: biocide used alone; for Synergy index Qa/QA + Qb/QB: method of Kull et al.; for MIC at MIT concentration Qa: MIT part of the MIC pair. The protocol: as §1, §2, §3
The test arrangement again included a Sabouraud maltose broth as culture medium. The cell density was 10^6 germs/ml. The incubation time was 72 hours at 25° C. Every sample was incubated at 120 r.p.m. on an incubation shaker.
Example 5 was repeated with the change that the incubation time was 96 hours instead of 72 hours.

For the compound `CCCCNC(=O)OCC#CI` [IPBC, 3-iodo-2-propynyl-N-butylcarbamate], the “MIC at IPBC concentration Qb” value is given as 2.5 ppm in the assay on Candida valida (IPBC part of the MIC pair); 5 ppm in the assay on Aspergillus niger (IPBC part of the MIC pair); 10 ppm in the assay with Saccharomyces cerevisiae (72 hours); 10 ppm in the assay with Saccharomyces cerevisiae (96 hours); 1.5 ppm in the assay on Penicillium funiculosum (72 hours); 1.5 ppm with Penicillium funiculosum (96 hours). In addition, the MIC value with Candida valida is recorded as 2.5 ppm; in the assay on Aspergillus niger it was 5 ppm; in the assay with Saccharomyces cerevisiae (72 hours), 10 ppm; in the assay on Saccharomyces cerevisiae (96 hours) it was 10 ppm; with Penicillium funiculosum (72 hours), 1.5 ppm; in the assay on Penicillium funiculosum (96 hours), 1.5 ppm. For the same compound, the “Synergy index Qa/QA + Qb/QB” value in the assay on Candida valida, in the assay on Aspergillus niger, in the assay with Saccharomyces cerevisiae (72 hours), in the assay with Saccharomyces cerevisiae (96 hours), in the assay on Penicillium funiculosum (72 hours) and in the assay with Penicillium funiculosum (96 hours) was 1.00 each time.

Turning to `Cn1sccc1=O` [MIT, 2-methylisothiazolin-3-one], the “MIC at MIT concentration Qa” value with Candida valida (MIT part of the MIC pair) amounted to 75 ppm; in the assay on Aspergillus niger (MIT part of the MIC pair), 750 ppm; in the assay with Saccharomyces cerevisiae (72 hours), 150 ppm; with Saccharomyces cerevisiae (96 hours), 150 ppm; in the assay with Penicillium funiculosum (72 hours) it was 200 ppm; in the assay on Penicillium funiculosum (96 hours), 200 ppm. Moreover, the MIC value in the assay on Candida valida is given as 75 ppm; in the assay on Aspergillus niger, 750 ppm; in the assay on Saccharomyces cerevisiae (72 hours), 150 ppm; with Saccharomyces cerevisiae (96 hours), 150 ppm; with Penicillium funiculosum (72 hours), 200 ppm; in the assay on Penicillium funiculosum (96 hours), 200 ppm. In addition, the “Synergy index Qa/QA + Qb/QB” value with Candida valida, in the assay with Aspergillus niger, in the assay with Saccharomyces cerevisiae (72 hours), with Saccharomyces cerevisiae (96 hours), with Penicillium funiculosum (72 hours) and in the assay on Penicillium funiculosum (96 hours) was 1.00 throughout.
